System: recombinant E2 protein binding to CD81 expressed in Jurkat cells
Assay: Inhibition of binding of recombinant E2 protein to Jurkat cells (FACScan)
Format: cell-based, HCV
Conditions: 1 μg recombinant E2 protein preincubated with 10 μL of 1 mg/mL solution, room temperature 1 hour; FIG. 14
Experimental: An oligopeptide capable of binding to HCV E2 antigen is reacted with the HCV E2 antigen to study whether or not binding of CD81 expressed in Jurkat cells purchased from DAINIPPON PHARMACEUTICAL CO., LTD. to the HCV E2 antigen is inhibited. By the study, whether or not the selected oligopeptide inhibits adhesion of the HCV E2 antigen to CD81-positive cells can be estimated. The inhibitory activity for adhesion of CD81 to the IICV E2 antigen was assayed in accordance with the literature. The concrete description will be given hereinbelow.
The Jurkat cells were prepared in the same manner as in item (1), and suspended in WB so as to have a concentration of 4×10^6 cells/mL, to give a Jurkat cell suspension. […]
Hereinafter, in the same manner as in the item (1) above, the resulting product was reacted with an FITC-labeled anti-mouse IgG1 antibody, and thereafter the reaction mixture was suspended in 0.2 mL of a 10% neutral buffered formalin solution. As to the resulting product, E2 protein bound to Jurkat cells was analyzed by using FACScan.
One microgram of the recombinant E2 protein, and 10 μL of the TAPA148, bLF or bLF443 solution obtained in item (4) above were added to a 6 mm rounded-bottom tube and, and WB was then added thereto, to give 50 μL of a mixture. […] As to the resulting suspension, E2 protein bound to Jurkat cells was analyzed by using FACScan.

Substance | inhibitory action of binding of E2 protein to Jurkat cells
TAPA148: Human CD81-derived peptide, SEQ ID NO: 23 (TFHETLDCCGSSTLTALTTSVLKNNLCPSGSNIISNLFKTDCHQKIDDLTSGK; Synthesized peptide TAPA148 which is derived from human CD81) | inhibitory action of binding of E2 protein
bLF443: Bovine lactoferrin-derived peptide, SEQ ID NO: 24 (LDCVLRPTEGYLAVAVVKKANEGLTWNSLKDKKSCH; Synthesized peptide bLF443 which is derived from bovine lactoferrin) | inhibitory action of binding of the E2 protein
